# Assay results from PMC10477891, “Celastrol Combats Methicillin‐Resistant Staphylococcus aureus by Targeting Δ^1‐Pyrroline‐5‐Carboxylate Dehydrogenase” (Advanced Science, 2023).
# Columns and labels:
# [1] = molecular target: T1, P5CDH (Δ1-pyrroline-5-carboxylate dehydrogenase) (Staphylococcus aureus, UniProt Q2FDV3); test: P5CDH activity kit (FT-M52211); format: biochemical
# T1 construct: gene rocA
# T1 sequence (Q2FDV3 1-514): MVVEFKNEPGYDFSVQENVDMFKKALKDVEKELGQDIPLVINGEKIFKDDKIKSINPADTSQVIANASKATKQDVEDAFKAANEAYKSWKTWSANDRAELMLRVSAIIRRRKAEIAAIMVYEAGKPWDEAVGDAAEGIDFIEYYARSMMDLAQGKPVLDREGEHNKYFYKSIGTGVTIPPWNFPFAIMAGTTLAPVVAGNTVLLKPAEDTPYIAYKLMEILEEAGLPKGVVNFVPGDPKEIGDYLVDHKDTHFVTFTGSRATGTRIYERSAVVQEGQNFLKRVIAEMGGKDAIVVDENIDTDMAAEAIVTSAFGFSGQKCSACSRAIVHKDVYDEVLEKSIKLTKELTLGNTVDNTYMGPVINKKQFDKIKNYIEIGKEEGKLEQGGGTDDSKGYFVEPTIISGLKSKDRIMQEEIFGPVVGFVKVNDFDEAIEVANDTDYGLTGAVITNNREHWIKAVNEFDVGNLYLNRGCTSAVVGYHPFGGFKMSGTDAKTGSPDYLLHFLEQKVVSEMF
# [2] = molecular target: T1, P5CDH (Δ1-pyrroline-5-carboxylate dehydrogenase); test: bio-layer interferometry (Octet NTA, immobilised P5CDH); format: binding
smiles,measurement,setting,value
CC1=C(O)C(=O)C=C2C1=CC=C1[C@@]2(C)CC[C@@]2(C)[C@@H]3C[C@](C)(C(=O)O)CC[C@]3(C)CC[C@]12C [celastrol],IC50,[1],10.9 µM
same,Kd,[2],55 µM
